Where a name gives a salt, the structure may show the parent alone.
Assay: Human plasma stability (Protocols 1 and 2)
Format: in vitro ADME
Settings: Protocol 1; human plasma pH 7.4, 1 μM, 37° C., 2 h
Protocol: Example B6: Human Plasma Stability
Studies were carried out in human plasma. All plasma was obtained from Bioreclamation and collected on sodium heparin. Plasma was adjusted to pH 7.4. A DMSO stock was first prepared for the test compound. An aliquot of the DMSO solution was dosed into 1 mL of plasma, which had been pre-warmed to 37° C., at a final test compound concentration of 1 μM. The vials were kept in a benchtop Thermomixer® for the duration of the experiment. Aliquots (100 μL) were taken at each time point (0, 15, 30, 60, and 120 minutes) and added to 96-well plates which had been pre-filled with 300 μL of acetonitrile. Samples were stored at 4° C. until the end of the experiment. After the final time point was sampled, the plate was mixed and then centrifuged at 3,000 rpm for 10 minutes. Aliquots of the supernatant were removed, diluted 1:1 into distilled water, and analyzed by LC-MS/MS. The peak area response ratio to internal standard (PARR) of the compound at 15, 30, 60 and 120 minutes was compared to the PARR at time 0 to determine the percent of test compound remaining at each time point. Half-lives were calculated using GraphPad software, fitting to a single-phase exponential decay equation.
Studies were carried out in plasma. Plasma was prepared under approval of IRB and IACUC on sodium heparin. The pH of plasma was monitored and used within the range of pH 7.4 to pH 8.0. DMSO stocks were prepared for the test compounds. Aliquots of the DMSO solutions were diluted to 0.05 mM by 0.05 mM Sodium phosphate buffer with 0.5% BSA. Then 10 μL of 0.05 mM solutions were dosed into 90 μL of plasma in duplicates (n=2), which had been pre-warmed to 37° C., at a final test compound concentration of 5 μM. The plates were kept in a 37° C. water bath for the duration of the experiment. At each time point (0, 5, 15, 30, 45, 60, and 120 minutes), 400 μL of acetonitrile was added into corresponding wells. After the final time point was sampled, the plates were shaken at the vibrator (IKA, MTS 2/4) for 10 min (600 rpm/min) and then centrifuged at 5594 g for 15 min (Thermo Multifuge×3R). Aliquots of the supernatant were removed, diluted 1:1 into distilled water, and analyzed by LC-MS/MS. The peak area response ratio to internal standard (PARR) of the compounds at 5, 15, 30, 45, 60, and 120 minutes was compared to the PARR at time 0 to determine the percent of test compound remaining at each time point. Half-lives were calculated using Excel software, fitting to a single-phase exponential decay equation.

Structure (SMILES) | % Remaining @ 2 h
Cl.O=C(OCC12CCN(CC1)CC2)c1c[nH]c2cc3c(cc12)OCCO3 [Compound 30, Quinuclidin-4-ylmethyl 2,3-dihydro-6H-[1,4]dioxino[2,3-f]indole-8-carboxylate hydrochloride] | 10%

Same assay, conditions: human, plasma, 2 h, 1 μM, pH 7.4

Structure (SMILES) | % Remaining @ 2 h
O=C(OCC12CCN(CC1)CC2)c1c[nH]c2cc(Cl)ccc12 [Compound 26, quinuclidin-4-ylmethyl 6-chloro-1H-indole-3-carboxylate] | 65%
O=C(OCC12CCN(CC1)CC2)c1c[nH]c2ccc(Br)cc12 [Compound 23, quinuclidin-4-ylmethyl 5-bromo-1H-indole-3-carboxylate] | 21%
O=C(OCC12CCN(CC1)CC2)c1c[nH]c2cccc(Br)c12 [Compound 24, quinuclidin-4-ylmethyl 4-bromo-1H-indole-3-carboxylate] | 89%
COc1cccc2[nH]cc(C(=O)OCC34CCN(CC3)CC4)c12 [Compound 36, quinuclidin-4-ylmethyl 4-methoxy-1H-indole-3-carboxylate] | 2.5%
O=C(OCC12CCN(CC1)CC2)c1c[nH]c2cc(O)ccc12 [Compound 14, quinuclidin-4-ylmethyl 6-hydroxy-1H-indole-3-carboxylate] | 26%
O=C(OCC12CCN(CC1)CC2)c1c[nH]c2cccc(Cl)c12 [Compound 35, quinuclidin-4-ylmethyl 4-chloro-1H-indole-3-carboxylate] | 56%

Same assay, conditions: human, plasma, pH 7.4

Structure (SMILES) | T1/2 | half-life at 5 μM
COc1cc(Cl)c2c(C(=O)OCC34CCN(CC3)CC4)c[nH]c2c1 [Compound 38, quinuclidin-4-ylmethyl 4-chloro-6-methoxy-1H-indole-3-carboxylate] | ∞ | –
COc1c(C)ccc2[nH]cc(C(=O)OCC34CCN(CC3)CC4)c12 [Compound 75, quinuclidin-4-ylmethyl 4-methoxy-5-methyl-1H-indole-3-carboxylate] | ∞ | –
CC(=O)Nc1cc(C)c2c(C(=O)OCC34CCN(CC3)CC4)c[nH]c2c1 [Compound 93, quinuclidin-4-ylmethyl 6-acetamido-4-methyl-1H-indole-3-carboxylate] | – | 641 min
COc1ccc2[nH]cc(C(=O)OCC34CCN(CC3)CC4)c2c1OC [Compound 40, quinuclidin-4-ylmethyl 4,5-dimethoxy-1H-indole-3-carboxylate] | ∞ | –
O=C(OCC12CCN(CC1)CC2)c1c[nH]c2ccc(F)c(Cl)c12 [Compound 62, quinuclidin-4-ylmethyl 4-chloro-5-fluoro-1H-indole-3-carboxylate hydrochloride] | – | 354 min
O=C(OCC12CCN(CC1)CC2)c1c[nH]c2cccc(C3CC3)c12 [Compound 61, Quinuclidin-4-ylmethyl 4-cyclopropyl-1H-indole-3-carboxylate] | – | 838 min
COCCCOc1ccc2[nH]cc(C(=O)OCC34CCN(CC3)CC4)c2c1C [Compound 92, quinuclidin-4-ylmethyl 5-(3-methoxypropoxy)-4-methyl-1H-indole-3-carboxylate] | – | 188 min
COc1cc(Br)c2c(C(=O)OCC34CCN(CC3)CC4)c[nH]c2c1 [Compound 48, quinuclidin-4-ylmethyl 4-bromo-6-methoxy-1H-indole-3-carboxylate] | – | 58900 min
Cc1cc(Cl)cc2[nH]cc(C(=O)OCC34CCN(CC3)CC4)c12 [Compound 50, quinuclidin-4-ylmethyl 6-chloro-4-methyl-1H-indole-3-carboxylate] | ∞ | –
Cc1c(F)ccc2[nH]cc(C(=O)OCC34CCN(CC3)CC4)c12 [Compound 43, quinuclidin-4-ylmethyl 5-fluoro-4-methyl-1H-indole-3-carboxylate] | ∞ | –
Cc1cc(C#N)cc2[nH]cc(C(=O)OCC34CCN(CC3)CC4)c12 [Compound 60, quinuclidin-4-ylmethyl 6-cyano-4-methyl-1H-indole-3-carboxylate] | – | 1380 min
Cc1cc(C)c2c(C(=O)OCC34CCN(CC3)CC4)c[nH]c2c1 [Compound 54, quinuclidin-4-ylmethyl 4,6-dimethyl-1H-indole-3-carboxylate] | – | 672 min
COc1cc2c(C(=O)OCC34CCN(CC3)CC4)c[nH]c2cc1C#N [Compound 76, quinuclidin-4-ylmethyl 6-cyano-5-methoxy-1H-indole-3-carboxylate] | – | 293 min

Same assay, conditions: human; Protocol 2; plasma pH 7.4 to 8.0, 5 μM, 37° C.; read-out: T1/2

Structure (SMILES) | half-life at 5 μM
Cl.O=C(OCC12CCN(CC1)CC2)c1c[nH]c2cc(C(F)(F)F)ccc12 [Compound 90, quinuclidin-4-ylmethyl 6-(trifluoromethyl)-1H-indole-3-carboxylate] | 183 min
Cl.O=C(OCC12CCN(CC1)CC2)c1c[nH]c2cc(F)cc(Cl)c12 [Compound 64, quinuclidin-4-ylmethyl 4-chloro-6-fluoro-1H-indole-3-carboxylate hydrochloride] | 726 min
Cc1ccc2c(C(=O)OCC34CCN(CC3)CC4)c[nH]c2c1.Cl [Compound 45, Quinuclidin-4-ylmethyl 6-methyl-1H-indole-3-carboxylate hydrochloride] | 116 min
O=C(OCC12CCN(CC1)CC2)c1c[nH]c2cc(O)cc(Br)c12 [Compound 53, quinuclidin-4-ylmethyl 4-bromo-6-hydroxy-1H-indole-3-carboxylate] | 1870 min

From patent publication US20170166561A1, “QUINUCLIDINE COMPOUNDS FOR MODULATING ALPHA7-NICOTINIC ACETYLCHOLINE RECEPTOR ACTIVITY” (Alpharmagen, LLC, priority 2014, published 2017)
